According to US5312928A, “Calcium channel antagonists and methodology for their identification” (priority 1991, dated 1994):
“Also recorded” adds a separate entry of the source.

What was measured:
[1] = test system: L-type calcium channels (GH4 C1 cells); experiment: Microscreen assay: K+-stimulated 45Ca uptake by GH4C1 clonal pituitary cells; type: cell-based, rat
Experimental: Frozen crude venom (40 μl) was thawed on ice and mixed with 210 μl of ice-cold 0.1% trifluoroacetic acid (TFA) in H2 O. The solution was centrifuged at room temperature for 5 min. at 13,000 rpm with an Eppendorf Centrifuge, and 240 μl of the supernatant was applied to a reversed-phase C18 HPLC column (100×250 mm, 5 μm bead size, 100 Å pore size, prepacked NGA column from The NEST Group). HPLC was performed using an acetonitrile gradient of 0 to 30% in 0.1% TFA in 105 min. at a flow rate of 4.0 ml/min. The elution was monitored by absorbance at 214 nm and 254 nm, and the fractions were collected manually according to the elution profile. Samples representing 5% of each fraction (corresponding to 2 μl crude venom per sample) were dried by Speed Vac (Savant), suspended in a buffer, and tested for their ability to block ^45 Ca^+ 2 influx into rat GH4C1 cells (see "Microscreen Assay for L-Type Calcium Channel Blockers" below).
Microscreen Assay for L-Type Calcium Channel Blockers
The rat GH4 C1 pituitary cells, a widely available cell line obtained from Dr. Armen Tashjian, Harvard Medical School, was used to measure effect of DOC preparations on calcium influx into cells.
Cell stocks were kept frozen in liquid nitrogen until needed. One ampule was thawed and then seeded onto a T-75 culture flask and grown to confluency. Thereafter, the cells were treated with a 1% trypsin solution in Hanks and replated onto T-25 culture flasks at different dilutions. Stocks were then kept growing and split as needed rather than refrozen. The medium used was Ham's F-10 supplied by Media-Tech containing 10% heat-inactivated fetal calf serum purchased from Hyclone. In general, the best response was obtained from 3-5 day post-confluent cells.
Cell suspension from one T-25 flask was prepared as follows for experiments. The flask was gently washed 2× with Hanks. 10 ml of warm 0.02% EDTA-Hanks was added to the flask and allowed to stand for approximately 30 seconds. The plate was sloshed, inverted and banged on a hard surface to dislodge the cells. 0.6 ml CMT-Hanks was immediately added and sloshed. The cells were then transferred to a 15 ml centrifuge tube and spun for 20-30 seconds at 50 g (700 RPM).
With a pipette, the supernatant was gently aspirated and resuspended by triturating the pellet in 0.4 ml HBBS. The cells were then transferred to a 4 ml flat bottom glass vial with a magnetic flea and stirred at the slowest speed.
Thereafter, low K^+ or high K^+ 4.2 μl ^45 Ca stock [eq. to 2 uCi/4.2 μl cells] was added to the tube and incubation was continued for 1 min. 790 μl HBBS was added to quench calcium uptake by the cells. The mixture was then pipetted up and down 2× before it was subjected to filtration in an Amicon filter manifold with a Whatman glass fiber filter. The filter was rinsed 5× with 5 ml HBBS buffer each. It is important that the buffer be squirted at the side of the chimney, straight down and not directly at the filter, since this may wash cells back up off the filter and onto the chimney. It is also important not to cause a whirlpool effect with the wash and create uneven rinsing of the filter.
A separate chimney for each well was used and each chimney was washed after use.
About 1 min. after the rinse, the chimney was removed to relieve the filter of suction to minimize loss of counts due to cell disruption. A set of four blanks (i.e., measurements using the same solutions but without cells) was run at the end of the assay to determine the background counts.

[2] = test system: synaptosomal calcium channels; experiment: Microscreen assay: K+-stimulated 45Ca uptake by synaptosomes; type: biochemical, rat
Experimental: The screening method used to test calcium blocking activity in GH4 C1 cells of venom preparations, as described above, was modified as follows for determining the effect of DOC1 on synaptosomal calcium uptake.
After the buffers were made, the osmolarity of the quench buffer was adjusted by dilution with ddH2 O to approximately equal to the average of the osmolarities of the other 3 buffers. All the buffers were made up in ddH^2 O only.
For basal uptake: 5 μl NEN stock+995 μl low K+Ca buffer.
For depolarized (i.e., high K^+) uptake: 5 μl NEN+995 μl high K+Ca buffer.
The synaptosome preparation described below was an adoption of a published procedure. [Hajos F., Brain Res. 93:485-489 (1975)].
Basal buffer used was of the following composition: Basal buffer, pH 7.4, was of following composition: NaCl 147 mM, KCl 3 mM, HEPES 10 mM, Dextrose 10 mM, MgCl2 1.2 mM, and EGTA-Tris 1 mM. The high-K^+ buffer was the same as the basal buffer except that concentrations of NaCl and KCl were 95 mM and 55 mM, respectively.
Synaptosomes were prepared from CD male rats of 4 to 6 weeks (50-75 g). Rats were killed by decapitation with guillotine, and the skull bone was opened in the center with the pointed blade of dissection scissors. The bone was then peeled away with a bone cutter and the brain pried with a micro spatula. […]

[3] = test system: L-type calcium channels (GH4 C1 cells); experiment: Whole-cell voltage-clamp electrophysiology, GH4 C1 cells; type: cell-based, rat
[4] = test system: DHP-resistant R-channels (N1E-115 cells); type: cell-based, murine
[5] = test system: T-type calcium channels (N1E-115 cells); type: cell-based, murine
[6] = test system: Na current, N1E-115 cells; type: cell-based, murine
[7] = test system: K currents, N1E-115 cells; type: cell-based, murine; settings: @ 1 U/ml
[8] = test system: L-channels? (cortical neurons); experiment: Block of K-stimulated 45Ca uptake, cortical neurons; type: cell-based
Text: Summarized in the Table below are results of experiments designed to study the effect of DOC1 on calcium channels by calcium 45 uptake measurement and electrophysiological method, both of which are described above.

[9] = test system: dihydropyridine binding sites on the L-type calcium channels; settings: up to 0.6 units/ml; rat brain membranes
Text: Other compounds which act through the same binding site as the dihydropyridines will inhibit this [^3 H]nimodipine binding.

L-type channels = settings: characteristic of dihydropyridines, background; read-out: IC50 for L-channel block; cited from earlier work
stroke = settings: cited from earlier work

Structure (SMILES): NCCCNCCCNCCCNCCCCCNC(=O)Cc1c[nH]c2cccc(O)c12 [DOC1]
- relative potency DOC1 vs DOC3 in blocking calcium uptake ([1]; FIG. 6, DOC1 compared with DOC3): several-fold more potent than DOC3
- activity in the 45Ca2+ influx assay / block of potassium-stimulated calcium uptake (in words) ([1]; GH4 C1 clonal pituitary cells): blocked potassium-stimulated calcium uptake; also recorded: active; also recorded: possess calcium blocking activity
- Block of DHP-sensitive L-type channels, GH4 C1 clonal pituitary cells, 45Ca uptake, IC50 ([1]; consistent inhibitory effects, IC50 varied among GH4 C1 cultures): 0.4-1.5 units/ml
- inhibition of K+-stimulated calcium uptake by synaptosomes ([2]; concentrations up to 0.5 units/ml, not more than about 30%): ≤ 30%
- block of synaptosomal calcium channels (in words) ([2]; in comparison with block of L-type channels in GH4 C1 cells): substantially less effective and potent
- block of current through calcium channels, GH4 C1 cells ([3]; 0.4-1.0 U/ml, depolarizations to between -10 and +20 mV): up to 80%
- reversibility of block of calcium channel current, GH4 C1 cells ([3]; FIG. 10): reversibly blocked; also recorded: capable of reversibly blocking electrical current
- Block of DHP-sensitive L-type channels, GH4 C1 clonal pituitary cells, electrophysiol, IC50 ([3]; puff application): 1.5 units/ml
- Block of DHP-resistant R-channels, N1E-115 cells (electrophys), IC50 [4]: 0.4 units/ml
- concentration yielding half-maximal inhibition of high-threshold current remaining after nimodipine ([4]; 10 μM nimodipine, maximum block 45%, FIG. 12): 0.37 U/ml
- inhibition of high-threshold current in continuous presence of nimodipine (in words) ([4]; 1.0 U/ml DOC1, 10 μM nimodipine, FIG. 11A, 11B): inhibition of the high-threshold current; also recorded: blocks high-threshold current
- reversibility and dose-dependence of the actions ([4]; upon washout): reversible upon washout and were dose-dependent
- effect on T-type current (in words) ([5]; evoked by weak depolarizations from negative holding potentials, FIG. 11C): did not substantially affect the T-type current; also recorded: no block of putative T-type channels was observed; also recorded: little effect on T-type current
- Block of low threshold, inactivating (T?) channels, N1E-115 cells (electrophysiol), IC50 ([5]; words in the IC50 column): none
- specificity for Ca channels over Na or K channels (in words) ([6]; Na or K channels, N1E-115 cells): striking specificity
- selectivity for Ca versus Na currents ([6]; on the order of): two
- Block of Na current, N1E-115 cells, IC50 ([6]; words in the IC50 column): not signif.
- Block of K currents, N1E-115 cells [7]: 12%
- Block of K-stimulated 45Ca uptake (L-channels?), cortical neurons, IC50 ([8]; IC50 varied among sensitive cultures): 0.1-0.4 units/ml
- sensitivity of cortical neuron cultures (in words) ([8]; some cultures of cortical neurons): insensitive
- inhibition of [3H]nimodipine binding (in words) [9]: no significant inhibition; also recorded: no inhibition of nimodipine binding

Structure (SMILES): COC(=O)C1=C(C)NC(C)=C(C(=O)OC)C1c1ccccc1[N+](=O)[O-] [nifedipine]
- IC50 (L-type channels): < 1 µM

Structure (SMILES): COCCOC(=O)C1=C(C)NC(C)=C(C(=O)OC(C)C)C1c1cccc([N+](=O)[O-])c1 (stereo not shown) [nimodipine]
- IC50 (L-type channels): < 1 µM
- cardiovascular side effects (stroke; background statement): significant cardiovascular side effects
- improvement in the outcome of stroke in clinical trials (stroke; clinical trials, Gelmers et al. 1988): Modest improvement in the outcome of stroke
